Source: patent US20050180921A1, “Contrast agents to improve gastrointestinal tract opacification during abdominal and pelvic CT scans” (priority 2004, published 2005)

Tested on: gastrointestinal tract
Assay: CT of abdomen and pelvis after oral agent: bowel distension, wall visualization, transit to colon
Type: in vivo, human
Description: Institutional review board approval was obtained. These materials were offered to outpatients (ranging from 18 to 89 years of age) in random fashion. In each case, the patient was given literature to explain the project and then asked to sign a consent form. Those who declined participation in the study were given dilute iodinated contrast or water as appropriate for the exam. […] The amount of each material, 1600 cc, and timing, approximately 60 minutes, were standard for the preparation protocol used with dilute iodinated contrast. Although scanning parameters varied slightly, depending on the clinical question, all patients received 5 mm or less slices through the abdomen and pelvis. […] Where given, the intravenous contrast agent was administered from 3-5 cc/sec for 100-150 cc of 300 mg % non-ionic contrast.
Each drink was labeled with a letter A-E to blind the administered substance to the reader. […] Each CT scan was read by consensus by two readers. Each exam was rated for various characteristics. The stomach was rated for distention: 1=well distended; 2=adequate distention; 3=poor distention. The small bowel was rated for two characteristics. The distention was assessed with measurements taken from the left upper quadrant (LUQ), the pelvis, and the right lower quadrant (RLQ) areas. Three measures were taken at each area with the greatest diameters used. The diameters were then averaged. The definition of the bowel wall was also graded using visualization of the wall separate from the luminal contents as well as the ability to appreciate the valvulae conniventes when present (1=excellent, 2=good, 3=fair, 4=poor, 5=non-diagnostic). Finally, an attempt was made to assess whether the ingested liquid was able to reach the colon during the preparation time period (0=no oral contrast in colon, 1=oral contrast in colon).

Structure (SMILES): O [Water, water]
- LUQ small bowel distention (averaged greatest diameters) (1600 cc oral, approximately 60 minutes, left upper quadrant, group mean): 17.50 mm
- Pelvis small bowel distention (averaged greatest diameters) (1600 cc oral, approximately 60 minutes, pelvis, group mean): 14.79 mm
- RLQ small bowel distention (averaged greatest diameters) (1600 cc oral, approximately 60 minutes, right lower quadrant, group mean): 14.14 mm
- mid to distal / small bowel distention, result in words (FIGS. 2A-2D and study in general): least effective
- Wall (definition of the bowel wall, qualitative evaluation) (mean grade, 1=excellent, 2=good, 3=fair, 4=poor, 5=non-diagnostic): 2.23
- Stomach (distention, qualitative evaluation) (mean grade, 1=well distended, 2=adequate distention, 3=poor distention): 2.13
- Colon (ingested liquid reached the colon during preparation time) (mean, 0=no oral contrast in colon, 1=oral contrast in colon): .020
